Laboratory results: publication PMC6522510 (Nature Communications, 2019)
Like-named read-outs stand apart in the source and are kept apart here.

What was measured:
Design in all cases: species or system AML cell lines (8); Primary HTS, single concentration about 10 uM, Cell Titer Glo viability; log10 luminescence, per cent inhibition relative to cycloheximide control
Conditions in all cases: 72 h, relative to cycloheximide control, log10 luminescence, inhibitor
[1] = system: U937
[2] = system: M07e
[3] = system: CMS
[4] = system: CMK
[5] = system: ML-2
[6] = system: MOLM-13
[7] = system: CHRF288-11
[8] = system: MV4-11

Compound	U937 %inh [1]	M07e %inh [2]	CMS %inh [3]	CMK %inh [4]	ML-2 %inh [5]	MOLM-13 %inh [6]	CHRF288-11 %inh [7]	MV4-11 %inh [8]	U937 %inh ([1]; U937 %inh, 10 µM)	M07e %inh ([2]; M07e %inh, 10 µM)	CMS %inh ([3]; CMS %inh, 10 µM)	CMK %inh ([4]; CMK %inh, 10 µM)	ML-2 %inh ([5]; ML-2 %inh, 10 µM)	MOLM-13 %inh ([6]; MOLM-13 %inh, 10 µM)	CHRF288-11 %inh ([7]; CHRF288-11 %inh, 10 µM)	MV4-11 %inh ([8]; MV4-11 %inh, 10 µM)
CN1CCC(C(=O)Nc2n[nH]c3nnc(-c4ccccc4)cc23)CC1 [SJ000573074-1, JW48822-132A0]	1.724%	2.861%	83.36%	70.18%	3.693%	8.108%	65.15%	34.03%	–	–	–	–	–	–	–	–
C#Cc1cccc(Nc2ncnc3ccc(OCCCCNCCS(C)(=O)=O)cc23)c1 [SJ000573075-1, U14819/194/1]	-0.213%	-0.9936%	3.196%	9.032%	4.028%	9.087%	4.443%	-0.7985%	–	–	–	–	–	–	–	–
O=C1Nc2ccc(C(=O)c3ccco3)cc2C1=Cc1cc(Cl)c(O)c(Cl)c1 [SJ000573076-1, U12068/71/3]	-1.189%	2.097%	3.176%	-2.763%	3.323%	0.2179%	1.037%	1.256%	–	–	–	–	–	–	–	–
Cc1ccc2c(-c3ccnc(Nc4ccccc4)n3)c(-c3ccc(F)cc3)nn2n1 [SJ000573077-1, U18020/155/1]	0.3541%	7.072%	18.56%	0.5232%	0.6284%	-1.366%	5.564%	-0.5842%	–	–	–	–	–	–	–	–
COc1ccc(-c2nn3ncccc3c2-c2ccnc(Nc3ccc4c(c3)OCCO4)n2)cc1 [SJ000573078-1, U17838/181/2]	3.638%	5.255%	4.836%	-0.1559%	1.307%	3.964%	4.025%	-0.1391%	–	–	–	–	–	–	–	–
COc1ccc(-c2nn3ncccc3c2-c2ccnc(Nc3cccc(C(F)(F)F)c3)n2)cc1 [SJ000573079-1, U17838/180/3]	2.119%	14.72%	13.73%	4.001%	-0.6403%	3.38%	5.707%	8.211%	–	–	–	–	–	–	–	–
FC(F)(F)c1cccc(-c2nn3ncccc3c2-c2ccnc(Nc3ccc4c(c3)OCCO4)n2)c1 [SJ000573080-1, U18020/138/1]	3.041%	-0.1766%	2.426%	6.614%	2.472%	3.832%	0.7655%	2.308%	–	–	–	–	–	–	–	–
Fc1ccc(-c2nn3ncccc3c2-c2ccnc(Nc3ccc4c(c3)OCCO4)n2)cc1 [SJ000573081-1, U18020/136/2]	35.33%	1.748%	13.71%	3.915%	-1.741%	1.143%	0.4339%	14.42%	–	–	–	–	–	–	–	–
NC(=O)c1cc(-c2ccncc2)cc(-c2ccccc2)c1N [SJ000573082-1, R11976/162/1]	14.29%	-1.265%	3.949%	2.399%	-0.3373%	11%	4.55%	10.06%	–	–	–	–	–	–	–	–
CC1=C(C(=O)Nc2ccc3[nH]ncc3c2)C(c2ccc(F)cc2)N=C(c2ccc(C(F)(F)F)nc2)N1 (centres unmarked) [SJ000573083-1, GW204431-043A1]	-1.3%	0.1515%	-1.221%	6.755%	3.386%	1.317%	5.88%	0.5281%	–	–	–	–	–	–	–	–
NS(=O)(=O)c1ccc(-c2cc3ccncc3cc2OCc2ccccc2)cc1 [SJ000573084-1, R12606/136/38]	0.3678%	5.451%	4.611%	-0.9682%	1.187%	2.161%	3.946%	-2.181%	–	–	–	–	–	–	–	–
CCCNc1cccc(-n2ncc3c(N/N=C/c4ccncc4)ncnc32)c1 [SJ000573085-1, U17680/65/1]	-0.2236%	4.312%	0.7041%	0.2304%	-0.9551%	-1.209%	2.576%	-0.4908%	–	–	–	–	–	–	–	–
CN1CCC(C(=O)Nc2n[nH]c3nc(-c4ccc(O)cc4)c(Br)cc23)CC1 [SJ000573086-1, RW100084-040A1 | AN100368-077A1]	–	–	–	–	–	–	–	–	86.11%	88.26%	85%	70.81%	63.69%	112.8%	69.8%	81.01%
CN1CCC(C(=O)Nc2n[nH]c3nc(-c4ccc(O)cc4)c(Br)cc23)CC1 [SJ000573086-2, RW100084-040A1 | AN100368-077A1]	–	–	–	–	–	–	–	–	85.17%	63.44%	94.2%	69.83%	61.94%	108.5%	68.5%	86.37%
CCC(=O)Nc1ccc(C)c(-c2ccc(C(=O)NCC3CC3)cc2)c1 [SJ000573087-1, R7387/20/4]	1.348%	5.006%	2.476%	1.803%	-0.3215%	6.641%	3.258%	5.047%	–	–	–	–	–	–	–	–
COc1ccc(-c2ccc3c(NC(=O)C4CC4)n[nH]c3n2)cc1 [SJ000573088-1, BS100048-058B1]	1.777%	-1.122%	-1.884%	5.626%	1.731%	4.236%	-3.869%	-0.1427%	–	–	–	–	–	–	–	–
CN1CCN(Cc2ccc(-c3cc4ncnc(Nc5ccc(OCc6cccc(F)c6)c(Cl)c5)c4s3)o2)CC1 [SJ000573089-1, U17540/68/2]	9.435%	-2.246%	6.304%	14.44%	-0.8811%	4.975%	89.11%	5.617%	–	–	–	–	–	–	–	–
COc1cc2ncnc(Nc3ccc(C)c(O)c3)c2cc1OC [SJ000573090-1, U13103/179/1]	0.4968%	-0.2224%	0.3431%	1.416%	-3.545%	7.874%	0.5463%	0.6335%	–	–	–	–	–	–	–	–
Cc1cc(O)cc(C)c1/C=C/c1cncc(C(=O)OC(C)(C)C)c1 [SJ000573091-1, U11962/36/1]	-1.9%	-1.025%	-1.844%	2.193%	-0.1273%	2.429%	-1.68%	1.728%	–	–	–	–	–	–	–	–
